Tests used:
[1] = molecular target: human V2 receptor (Homo sapiens (Human), UniProt P30518); test: Cellular in vitro assay for determining vasopressin receptor activity (V2, CRE-luciferase); format: cell-based; details: CHO cell line transfected with human V2 receptor; [Arg8]-vasopressin at EC50 concentration; read-out: IC50 hV2
[2] = molecular target: human V1a receptor (Homo sapiens (Human), UniProt P37288); test: Cellular in vitro assay for determining vasopressin receptor activity (V1a, aequorin luminescence); format: cell-based; details: for IC50: CHO cell line transfected with human V1a receptor, [Arg8]-vasopressin at EC50 concentration, read-out: IC50 hV1a; for ratio IC50 hV2/hV1a: selectivity, IC50 hV2 divided by IC50 hV1a
human V1a receptor, sequence (P37288 whole entry): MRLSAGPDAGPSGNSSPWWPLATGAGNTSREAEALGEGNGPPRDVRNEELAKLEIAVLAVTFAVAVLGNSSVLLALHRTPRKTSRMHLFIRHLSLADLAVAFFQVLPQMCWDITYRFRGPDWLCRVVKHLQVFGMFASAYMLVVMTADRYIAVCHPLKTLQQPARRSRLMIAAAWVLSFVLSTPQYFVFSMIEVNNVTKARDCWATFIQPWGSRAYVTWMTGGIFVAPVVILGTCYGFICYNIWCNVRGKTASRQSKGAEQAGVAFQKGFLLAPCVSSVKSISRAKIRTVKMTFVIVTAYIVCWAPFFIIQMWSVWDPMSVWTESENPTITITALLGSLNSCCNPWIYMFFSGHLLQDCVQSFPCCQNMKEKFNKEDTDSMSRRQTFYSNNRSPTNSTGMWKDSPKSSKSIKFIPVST

human V2 receptor, sequence (P30518 whole entry): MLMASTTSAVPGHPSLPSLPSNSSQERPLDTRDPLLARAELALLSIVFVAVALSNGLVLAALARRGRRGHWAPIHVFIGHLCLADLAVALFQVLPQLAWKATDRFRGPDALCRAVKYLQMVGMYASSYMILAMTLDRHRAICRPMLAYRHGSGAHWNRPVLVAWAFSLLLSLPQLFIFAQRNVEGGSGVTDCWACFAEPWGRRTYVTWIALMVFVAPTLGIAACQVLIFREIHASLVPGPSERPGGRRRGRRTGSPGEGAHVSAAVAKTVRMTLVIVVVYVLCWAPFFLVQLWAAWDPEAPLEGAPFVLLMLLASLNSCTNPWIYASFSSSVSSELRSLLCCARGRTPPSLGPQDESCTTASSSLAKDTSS

Structure (SMILES): O=C(CCC(F)(F)F)NC(Cn1c(-c2ccc(Cl)cc2)nn(Cc2ncn(-c3ncccc3Cl)n2)c1=O)C(F)(F)F (single isomer, unassigned) [Example 33, N-{3-[3-(4-Chlorophenyl)-1-{[1-(3-chloropyridin-2-yl)-1H-1,2,4-triazol-3-yl]methyl}-5-oxo-1,5-dihydro-4H-1,2,4-triazol-4-yl]-1,1,1-trifluoropropan-2-yl}-4,4,4-trifluorobutanamide]
- IC50 [1]: 5600 nM
- IC50 [2]: 215 nM

Structure (SMILES): O=C(CCC(F)(F)F)NC(Cn1c(-c2ccc(Cl)cc2)nn(Cc2ncn(-c3ncccc3Cl)n2)c1=O)C(F)(F)F (single isomer, unassigned) [Example 34, N-{3-[3-(4-Chlorophenyl)-1-{[1-(3-chloropyridin-2-yl)-1H-1,2,4-triazol-3-yl]methyl}-5-oxo-1,5-dihydro-4H-1,2,4-triazol-4-yl]-1,1,1-trifluoropropan-2-yl}-4,4,4-trifluorobutanamide]
- IC50 [1]: 33.5 nM
- IC50 [2]: 0.82 nM

Structure (SMILES): O=C1CC[C@@H](C(=O)NC(Cn2c(-c3ccc(Cl)cc3)nn(Cc3ncn(-c4ncccc4Cl)n3)c2=O)C(F)(F)F)N1 (single isomer, unassigned) [Example 36, N-{3-[3-(4-Chlorophenyl)-1-{[1-(3-chloropyridin-2-yl)-1H-1,2,4-triazol-3-yl]methyl}-5-oxo-1,5-dihydro-4H-1,2,4-triazol-4-yl]-1,1,1-trifluoropropan-2-yl}-5-oxo-L-prolinamide]
- IC50 [1]: 890 nM
- IC50 [2]: 3.5 nM
- ratio IC50 hV2/hV1a [2]: 254.3

Structure (SMILES): O=C1CC[C@@H](C(=O)NC(Cn2c(-c3ccc(Cl)cc3)nn(Cc3ncn(-c4ncccc4Cl)n3)c2=O)C(F)(F)F)N1 (single isomer, unassigned) [Example 37, N-{3-[3-(4-Chlorophenyl)-1-{[1-(3-chloropyridin-2-yl)-1H-1,2,4-triazol-3-yl]methyl}-5-oxo-1,5-dihydro-4H-1,2,4-triazol-4-yl]-1,1,1-trifluoropropan-2-yl}-5-oxo-L-prolinamide]
- IC50 [1]: 32000 nM
- IC50 [2]: 295 nM
- ratio IC50 hV2/hV1a [2]: 108.5

Structure (SMILES): O=C(NC(Cn1c(-c2ccc(Cl)cc2)nn(Cc2ncn(-c3ncccc3Cl)n2)c1=O)C(F)(F)F)C1CS(=O)(=O)C1 (single isomer, unassigned) [Example 39, N-{3-[3-(4-Chlorophenyl)-1-{[1-(3-chloropyridin-2-yl)-1H-1,2,4-triazol-3-yl]methyl}-5-oxo-1,5-dihydro-4H-1,2,4-triazol-4-yl]-1,1,1-trifluoropropan-2-yl}thietane-3-carboxamide 1,1-dioxide]
- IC50 [1]: 53.2 nM
- IC50 [2]: 0.48 nM

Structure (SMILES): O=C(NC(Cn1c(-c2ccc(Cl)cc2)nn(Cc2ncn(-c3ncccc3Cl)n2)c1=O)C(F)(F)F)C1CS(=O)(=O)C1 (single isomer, unassigned) [Example 40, N-{3-[3-(4-Chlorophenyl)-1-{[1-(3-chloropyridin-2-yl)-1H-1,2,4-triazol-3-yl]methyl}-5-oxo-1,5-dihydro-4H-1,2,4-triazol-4-yl]-1,1,1-trifluoropropan-2-yl}thietane-3-carboxamide 1,1-dioxide]
- IC50 [1]: 9870 nM
- IC50 [2]: 370 nM

Structure (SMILES): O=C(NC(Cn1c(-c2ccc(Cl)cc2)nn(Cc2ncn(-c3ncccc3Cl)n2)c1=O)C(F)(F)F)C1(C(F)(F)F)CC1 (single isomer, unassigned) [Example 42, N-{3-[3-(4-Chlorophenyl)-1-{[1-(3-chloropyridin-2-yl)-1H-1,2,4-triazol-3-yl]methyl}-5-oxo-1,5-dihydro-4H-1,2,4-triazol-4-yl]-1,1,1-trifluoropropan-2-yl}-1-(trifluoromethyl)cyclopropane-carboxamide]
- IC50 [1]: 12100 nM
- IC50 [2]: 1350 nM

Structure (SMILES): CS(=O)(=O)CC(=O)NC(Cn1c(-c2ccc(Cl)cc2)nn(Cc2ncn(-c3ncccc3Cl)n2)c1=O)C(F)(F)F (single isomer, unassigned) [Example 45, N-{3-[3-(4-Chlorophenyl)-1-{[1-(3-chloropyridin-2-yl)-1H-1,2,4-triazol-3-yl]methyl}-5-oxo-1,5-dihydro-4H-1,2,4-triazol-4-yl]-1,1,1-trifluoropropan-2-yl}-2-(methylsulfonyl)acetamide]
- IC50 [1]: 2300 nM
- IC50 [2]: 235 nM

Structure (SMILES): CS(=O)(=O)CC(=O)NC(Cn1c(-c2ccc(Cl)cc2)nn(Cc2ncn(-c3ncccc3Cl)n2)c1=O)C(F)(F)F (single isomer, unassigned) [Example 46, N-{3-[3-(4-Chlorophenyl)-1-{[1-(3-chloropyridin-2-yl)-1H-1,2,4-triazol-3-yl]methyl}-5-oxo-1,5-dihydro-4H-1,2,4-triazol-4-yl]-1,1,1-trifluoropropan-2-yl}-2-(methylsulfonyl)acetamide]
- IC50 [1]: 57.8 nM
- IC50 [2]: 1.35 nM

Structure (SMILES): O=C1NCC(C(=O)NC(Cn2c(-c3ccc(Cl)cc3)nn(Cc3ncn(-c4ncccc4Cl)n3)c2=O)C(F)(F)F)N1 (stereo not drawn) [Example 2]
- IC50 [1]: 2400 nM
- IC50 [2]: 40.5 nM
- ratio IC50 hV2/hV1a [2]: 59.3

Structure (SMILES): O=C(NC(Cn1c(-c2ccc(Cl)cc2)nn(Cc2ncn(-c3ncccc3Cl)n2)c1=O)C(F)(F)F)C1CCO1 (stereo not drawn) [Example 3, N-{3-[3-(4-Chlorophenyl)-1-{[1-(3-chloropyridin-2-yl)-1H-1,2,4-triazol-3-yl]methyl}-5-oxo-1,5-dihydro-4H-1,2,4-triazol-4-yl]-1,1,1-trifluoropropan-2-yl}oxetane-2-carboxamide]
- IC50 [1]: 445 nM
- IC50 [2]: 4.1 nM
- ratio IC50 hV2/hV1a [2]: 108.5

Structure (SMILES): O=C(NC(Cn1c(-c2ccc(Cl)cc2)nn(Cc2ncn(-c3ncccc3Cl)n2)c1=O)C(F)(F)F)C1CC1(F)F (stereo not drawn) [Example 7, N-{3-[3-(4-Chlorophenyl)-1-{[1-(3-chloropyridin-2-yl)-1H-1,2,4-triazol-3-yl]methyl}-5-oxo-1,5-dihydro-4H-1,2,4-triazol-4-yl]-1,1,1-trifluoropropan-2-yl}-2,2-difluorocyclopropanecarboxamide]
- IC50 [1]: 130 nM
- IC50 [2]: 1.65 nM
- ratio IC50 hV2/hV1a [2]: 78.8

Structure (SMILES): CC(F)C(=O)NC(Cn1c(-c2ccc(Cl)cc2)nn(Cc2ncn(-c3ncccc3Cl)n2)c1=O)C(F)(F)F (stereo not drawn) [Example 10]
- IC50 [1]: 365 nM
- IC50 [2]: 6.1 nM
- ratio IC50 hV2/hV1a [2]: 59.8

Structure (SMILES): O=C(NC(Cn1c(-c2ccc(Cl)cc2)nn(Cc2ncn(-c3ncccc3Cl)n2)c1=O)C(F)(F)F)C1CC1F (stereo not drawn) [Example 12, N-{3-[3-(4-Chlorophenyl)-1-{[1-(3-chloropyridin-2-yl)-1H-1,2,4-triazol-3-yl]methyl}-5-oxo-1,5-dihydro-4H-1,2,4-triazol-4-yl]-1,1,1-trifluoropropan-2-yl}-2-fluorocyclopropanecarboxamide]
- IC50 [1]: 560 nM
- IC50 [2]: 22.5 nM
- ratio IC50 hV2/hV1a [2]: 24.9

Structure (SMILES): O=C(NC(Cn1c(-c2ccc(Cl)cc2)nn(Cc2ncn(-c3ncccc3Cl)n2)c1=O)C(F)(F)F)C1CC1C(F)(F)F (stereo not drawn) [Example 18, N-{3-[3-(4-Chlorophenyl)-1-{[1-(3-chloropyridin-2-yl)-1H-1,2,4-triazol-3-yl]methyl}-5-oxo-1,5-dihydro-4H-1,2,4-triazol-4-yl]-1,1,1-trifluoropropan-2-yl}-2-(trifluoromethyl)cyclopropanecarboxamide]
- IC50 [1]: 33.5 nM
- IC50 [2]: 2.5 nM
- ratio IC50 hV2/hV1a [2]: 13.4

Structure (SMILES): CC(C)(C)OC(=O)N1CCC(C(=O)NC(Cn2c(-c3ccc(Cl)cc3)nn(Cc3ncn(-c4ncccc4Cl)n3)c2=O)C(F)(F)F)C1 (stereo not drawn) [Example 23, tert-Butyl 3-({3-[3-(4-chlorophenyl)-1-{[1-(3-chloropyridin-2-yl)-1H-1,2,4-triazol-3-yl]methyl}-5-oxo-1,5-dihydro-4H-1,2,4-triazol-4-yl]-1,1,1-trifluoropropan-2-yl}carbamoyl)pyrrolidine-1-carboxylate]
- IC50 [1]: 72.5 nM
- IC50 [2]: 1.01 nM

Structure (SMILES): O=C(NC(Cn1c(-c2ccc(Cl)cc2)nn(Cc2ncn(-c3ncccc3Cl)n2)c1=O)C(F)(F)F)C1CCNC1 (stereo not drawn) [Example 24, N-{3-[3-(4-Chlorophenyl)-1-{[1-(3-chloropyridin-2-yl)-1H-1,2,4-triazol-3-yl]methyl}-5-oxo-1,5-dihydro-4H-1,2,4-triazol-4-yl]-1,1,1-trifluoropropan-2-yl}pyrrolidine-3-carboxamide]
- IC50 [1]: 708 nM
- IC50 [2]: 4.4 nM
- ratio IC50 hV2/hV1a [2]: 160.8

Structure (SMILES): CC(C)(C)OC(=O)NC1(C(=O)NC(Cn2c(-c3ccc(Cl)cc3)nn(Cc3ncn(-c4ncccc4Cl)n3)c2=O)C(F)(F)F)CCC1 (stereo not drawn) [Example 28, tert-Butyl [1-({3-[3-(4-chlorophenyl)-1-{[1-(3-chloropyridin-2-yl)-1H-1,2,4-triazol-3-yl]methyl}-5-oxo-1,5-dihydro-4H-1,2,4-triazol-4-yl]-1,1,1-trifluoropropan-2-yl}carbamoyl)cyclobutyl]-carbamate]
- IC50 [1]: 22.5 nM
- IC50 [2]: 1.85 nM

Structure (SMILES): O=C(NC(Cn1c(-c2ccc(Cl)cc2)nn(Cc2ncn(-c3ncccc3Cl)n2)c1=O)C(F)(F)F)C1CCS(=O)(=O)C1 (stereo not drawn) [Example 30, N-{3-[3-(4-Chlorophenyl)-1-{[1-(3-chloropyridin-2-yl)-1H-1,2,4-triazol-3-yl]methyl}-5-oxo-1,5-dihydro-4H-1,2,4-triazol-4-yl]-1,1,1-trifluoropropan-2-yl}tetrahydrothiophene-3-carboxamide 1,1-dioxide]
- IC50 [1]: 213 nM
- IC50 [2]: 6.3 nM
- ratio IC50 hV2/hV1a [2]: 33.9

Structure (SMILES): O=C(N[C@@H](Cn1c(-c2ccc(Cl)cc2)nn(Cc2ncn(-c3ncccc3Cl)n2)c1=O)C(F)(F)F)C1(C(F)(F)F)CC1 [Example 43]
- IC50 [1]: 57.2 nM
- IC50 [2]: 1.4 nM
- ratio IC50 hV2/hV1a [2]: 40.9

Structure (SMILES): O=C(NC(Cn1c(-c2ccc(Cl)cc2)nn(Cc2ncn(-c3ncccc3Cl)n2)c1=O)C(F)(F)F)C1CCCN1 (stereo not drawn) [Example 47, N-{3-[3-(4-Chlorophenyl)-1-{[1-(3-chloropyridin-2-yl)-1H-1,2,4-triazol-3-yl]methyl}-5-oxo-1,5-dihydro-4H-1,2,4-triazol-4-yl]-1,1,1-trifluoropropan-2-yl}-prolinamide]
- IC50 [1]: 50 nM
- IC50 [2]: 1.85 nM
- ratio IC50 hV2/hV1a [2]: 27.0

Structure (SMILES): O=C(NC(Cn1c(-c2ccc(Cl)cc2)nn(Cc2ncn(-c3ncccc3Cl)n2)c1=O)C(F)(F)F)[C@@H]1CC(C(F)(F)F)CN1 (stereo partly drawn) [Example 50]
- IC50 [1]: 150 nM
- IC50 [2]: 3.2 nM
- ratio IC50 hV2/hV1a [2]: 46.9
